Read-outs that look alike come from different tables or passages of the source.
Experiments:
Format in all cases: cell-based
M2 = target: T1, M2 (Homo sapiens, UniProt P08172); test: In vitro functional assay of muscarinic acetylcholine receptor activity, M2
T1 sequence (P08172 1-466): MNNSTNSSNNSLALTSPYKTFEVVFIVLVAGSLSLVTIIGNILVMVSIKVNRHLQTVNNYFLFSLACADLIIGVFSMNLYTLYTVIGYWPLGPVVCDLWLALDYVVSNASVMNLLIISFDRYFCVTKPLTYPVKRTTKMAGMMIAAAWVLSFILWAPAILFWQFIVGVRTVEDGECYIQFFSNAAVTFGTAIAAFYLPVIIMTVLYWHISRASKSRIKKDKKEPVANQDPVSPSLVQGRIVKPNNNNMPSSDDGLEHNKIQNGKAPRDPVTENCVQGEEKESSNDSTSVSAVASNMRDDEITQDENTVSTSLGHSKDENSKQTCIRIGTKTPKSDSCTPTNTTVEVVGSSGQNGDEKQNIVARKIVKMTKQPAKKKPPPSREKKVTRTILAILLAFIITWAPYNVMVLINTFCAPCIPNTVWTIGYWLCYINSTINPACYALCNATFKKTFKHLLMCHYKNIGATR

M3 = M3 (Homo sapiens, UniProt P20309); test: In vitro functional assay of muscarinic acetylcholine receptor activity, M3; details: antagonist IC50 at M3; read-out: M3 IC50
human M1 receptor = target: T2, human M1 receptor (Homo sapiens, UniProt P11229); test: In vitro functional assay of muscarinic acetylcholine receptor activity (aequorin calcium flux, antagonist mode vs EC80 acetylcholine), M1
T2 sequence (P11229 1-460): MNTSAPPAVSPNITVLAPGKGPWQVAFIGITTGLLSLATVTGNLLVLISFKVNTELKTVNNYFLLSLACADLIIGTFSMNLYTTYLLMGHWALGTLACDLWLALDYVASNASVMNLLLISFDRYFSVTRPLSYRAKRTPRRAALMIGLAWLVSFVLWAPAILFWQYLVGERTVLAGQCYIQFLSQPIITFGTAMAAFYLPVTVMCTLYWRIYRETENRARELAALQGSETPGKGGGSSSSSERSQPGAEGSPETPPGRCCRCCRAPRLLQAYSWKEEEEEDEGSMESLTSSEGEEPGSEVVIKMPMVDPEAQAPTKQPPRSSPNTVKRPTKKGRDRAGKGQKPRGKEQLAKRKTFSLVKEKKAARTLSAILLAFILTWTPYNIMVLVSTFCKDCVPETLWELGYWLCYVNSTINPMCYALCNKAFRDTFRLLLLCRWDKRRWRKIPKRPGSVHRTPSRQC
Outline: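 CHO-K1 cells stably co-expressing human M1 and aequorin were loaded with 5 uM coelenterazine h for 4 h at room temperature in the dark. IC50 came from the drop in luminescence.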

[1] = antagonist IC50 at M2, read-out: M2 IC50
[2] = CHO-K1 cells stably expressing human M1 receptor with Aequorin, decrease in EC80 acetylcholine response, read-out: M1 IC50

M3, sequence (P20309 whole entry): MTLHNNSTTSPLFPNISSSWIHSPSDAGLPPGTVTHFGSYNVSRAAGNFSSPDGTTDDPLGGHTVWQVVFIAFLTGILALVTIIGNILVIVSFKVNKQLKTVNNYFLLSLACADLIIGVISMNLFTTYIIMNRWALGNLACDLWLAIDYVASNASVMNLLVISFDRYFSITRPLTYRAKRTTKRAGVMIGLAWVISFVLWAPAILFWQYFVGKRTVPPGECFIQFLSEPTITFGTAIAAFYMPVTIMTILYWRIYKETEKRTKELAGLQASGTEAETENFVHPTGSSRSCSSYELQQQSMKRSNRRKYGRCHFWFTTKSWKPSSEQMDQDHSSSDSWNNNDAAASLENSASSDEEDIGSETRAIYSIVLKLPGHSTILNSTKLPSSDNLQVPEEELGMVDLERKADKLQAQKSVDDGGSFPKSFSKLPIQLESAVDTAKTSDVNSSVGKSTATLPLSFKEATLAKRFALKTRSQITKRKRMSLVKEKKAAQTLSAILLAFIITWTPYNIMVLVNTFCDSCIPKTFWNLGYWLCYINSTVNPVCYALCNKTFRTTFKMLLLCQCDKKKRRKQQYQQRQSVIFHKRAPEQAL

SMILES | IC50 (M2; [1]) [nM] | IC50 (human M1 receptor; [2]) [nM] | IC50 (M3) [nM] | IC50 (human M1 receptor) [nM] | IC50 (M2) [nM]
N#Cc1cc(N2C3CCC2CN(C(=O)CCS(=O)(=O)c2cccc4nccn24)C3)ccc1F [Example 130, 2-fluoro-5-[3-(3-{imidazo[1,2-a]pyridine-5-sulfonyl}propanoyl)-3,8-diazabicyclo[3.2.1]octan-8-yl)benzonitrile] | 1000 to 10000 |  | > 10000 | < 100 | 
N#Cc1cc(N2C3CCC2CN(C(=O)CCNCc2c(F)ccc4nccn24)C3)ccc1F [Example 131, 2-fluoro-5-(3-{3-[({6-fluoroimidazo[1,2-a]pyridin-5-yl}methyl)amino]propanoyl}-3,8-diazabicyclo[3.2.1]octan-8-yl)benzonitrile] | > 10000 |  | > 10000 | 100 to 1000 | 
N#Cc1ccc(N2CC3CCC(C2)N3C(=O)CCS(=O)(=O)c2cccc3ncsc23)nc1 [Example 132, 6-{8-{3-(1,3-benzothiazole-7-sulfonyl)propanoyl]-3,8-diazabicyclo[3.2.1]octan-3-yl}pyridine-3-carbonitrile] |  |  | 1000 to 10000 | < 100 | 100 to 1000
N#Cc1ccc(N2C3COCC2CN(C(=O)CCS(=O)(=O)c2cccc4ncsc24)C3)nc1 [Example 133, 6-{7-[3-(1,3-benzothiazole-7-sulfonyl)propanoyl]-3-oxa-7,9-diazabicyclo[3.3.1]nonan-9-yl}pyridine-3-carbonitrile] |  |  | > 10000 | < 100 | 100 to 1000
O=C(CCS(=O)(=O)c1cccc2nccn12)N1CC2CCC(C1)N2c1ccc(C(F)(F)F)cn1 [Example 136, 3-{imidazo[1,2-a]pyridine-5-sulfonyl}-1-{8-[5-(trifluoromethyl)pyridin-2-yl]-3,8-diazabicyclo[3.2.1]octan-3-yl}propan-1-one] | 1000 to 10000 |  | 1000 to 10000 | < 100 | 
O=C(CCNCc1c(F)ccc2nccn12)N1CC2CCC(C1)N2c1ccncc1F [Example 139, 3-[({6-fluoroimidazo[1,2-a]pyridin-5-yl}methyl)amino]-1-[8-(3-fluoropyridin-4-yl)-3,8-diazabicyclo[3.2.1]octan-3-yl]propan-1-one] | > 10000 |  | > 10000 | 100 to 1000 | 
N#Cc1ccc(C2=CC3CCC(C2)N3C(=O)CCS(=O)(=O)c2cccc3ncsc23)nc1 (stereo not drawn) [Example 141, 6-{8-[3-(1,3-benzothiazole-7-sulfonyl)propanoyl]-8-azabicyclo[3.2.1]oct-2-en-3-yl}pyridine-3-carbonitrile] | 1000 to 10000 |  | > 10000 | 100 to 1000 | 
N#Cc1ccc(C2CC3CCC(C2)N3C(=O)CCS(=O)(=O)c2cccc3ncsc23)nc1 (stereo not drawn) [Example 142, 6-{8-[3-(1,3-benzothiazole-7-sulfonyl)propanoyl]-8-azabicyclo[3.2.1]octan-3-yl}pyridine-3-carbonitrile] | 1000 to 10000 | 1000 to 10000 | > 10000 |  | 
O=C(CCS(=O)(=O)c1cccc2nccn12)N1CC2CCC(C1)N2c1ccc(Cl)cn1 [Example 143, 1-[8-(5-chloropyridin-2-yl)-3,8-diazabicyclo[3.2.1]octan-3-yl]-3-{imidazo[1,2-a]pyridine-5-sulfonyl}propan-1-one] | 1000 to 10000 |  | 1000 to 10000 | < 100 | 
N#Cc1ccc(N2C3CCC2CN(C(=O)CCS(=O)(=O)c2cccc4ncsc24)C3)cn1 [Example 146, 5-{3-[3-(1,3-benzothiazole-7-sulfonyl)propanoyl]-3,8-diazabicyclo[3.2.1]octan-8-yl}pyridine-2-carbonitrile] | 100 to 1000 |  | 100 to 1000 | < 100 | 
O=C(CCS(=O)(=O)c1cccc2ncsc12)N1CC2CCC(C1)N2c1ccc(C(F)(F)F)cn1 [Example 147, 3-(1,3-benzothiazole-7-sulfonyl)-1-{8-[5-(trifluoromethyl)pyridin-2-yl]-3,8-diazabicyclo[3.2.1]octan-3-yl}propan-1-one] | < 100 |  | < 100 | < 100 | 
O=C(CCNCc1cccc2ncsc12)N1CC2CCC(C1)N2c1ccc(C(F)(F)F)cn1 [Example 148, 3-{[(1,3-benzothiazol-7-yl)methyl]amino}-1-{8-[5-(trifluoromethyl)pyridin-2-yl]-3,8-diazabicyclo[3.2.1]octan-3-yl}propan-1-one] | 1000 to 10000 |  | 1000 to 10000 | 100 to 1000 | 

Second part, led by results:

IC50 (M2; [1]) [nM] | IC50 (human M1 receptor; [2]) [nM] | SMILES | IC50 (M3) [nM] | IC50 (human M1 receptor) [nM] | IC50 (M2) [nM]
> 10000 | 1000 to 10000 | Cc1cc(Cl)cnc1N1CCN(C(=O)CCNCc2cccc3nccn23)[C@H](C)C1 [Example 123, 1-[(2R)-4-(5-chloro-3-methylpyridin-2-yl)-2-methylpiperazin-1-yl]-3-[({imidazo[1,2-a]pyridin-5-yl}methyl)amino]propan-1-one] | 1000 to 10000 |  | 
100 to 1000 | < 100 | Cc1cc(C#N)cnc1N1CCN(C(=O)CCS(=O)(=O)c2cccc3ncsc23)[C@@H](C)C1 [Example 124, 6-[(3S)-4-[3-(1,3-benzothiazole-7-sulfonyl)propanoyl]-3-methylpiperazin-1-yl]-5-methylpyridine-3-carbonitrile] | 100 to 1000 |  | 
100 to 1000 | < 100 | N#Cc1ccc(N2CC3CCC2CN3C(=O)CCS(=O)(=O)c2cccc3ncsc23)nc1 (stereo not drawn) [Example 125, 6-{5-[3-(1,3-benzothiazole-7-sulfonyl)propanoyl]-2,5-diazabicyclo[2.2.2]octan-2-yl}pyridine-3-carbonitrile] | 100 to 1000 |  | 
> 10000 | 100 to 1000 | CC1CN(c2ccc(C#N)cn2)[C@H](C)CN1C(=O)CCS(=O)(=O)c1cccc2ncsc12 (stereo partly drawn) [Example 126, 6-[(2R)-4-[3-(1,3-benzothiazole-7-sulfonyl)propanoyl]-2,5-dimethylpiperazin-1-yl]pyridine-3-carbonitrile] | > 10000 |  | 
100 to 1000 | < 100 | Cc1cc(F)cnc1N1CC(C)N(C(=O)CCS(=O)(=O)c2cccc3ncsc23)C[C@H]1C (stereo partly drawn) [Example 127, 3-(1,3-benzothiazole-7-sulfonyl)-1-[(5R)-4-(5-fluoro-3-methylpyridin-2-yl)-2,5-dimethylpiperazin-1-yl]propan-1-one] | 1000 to 10000 |  | 
1000 to 10000 | 100 to 1000 | N#Cc1ccc(N2CCN(C(=O)CCCc3cccc4ncoc34)CC2)nc1 [Example 129, 6-{4-[4-(1,3-benzoxazol-7-yl)butanoyl)piperazin-1-yl}pyridine-3-carbonitrile] | > 10000 |  | 
100 to 1000 | < 100 | Cc1cc(F)cnc1N1CC(C)N(C(=O)CCS(=O)(=O)c2cccc3ncsc23)C(C)C1 (stereo not drawn) [Example 135, 3-(1,3-benzothiazole-7-sulfonyl)-1-[4-(5-fluoro-3-methylpyridin-2-yl)-2,6-dimethylpiperazin-1-yl]propan-1-one] | 1000 to 10000 |  | 
> 10000 | 1000 to 10000 | Nc1cc(N2CCN(C(=O)CCS(=O)(=O)c3cccc4ncsc34)CC2)c(Cl)cn1 [Example 137, 1-[4-(2-amino-5-chloropyridin-4-yl)piperazin-1-yl]-3-(1,3-benzothiazole-7-sulfonyl)propan-1-one] | > 10000 |  | 
> 10000 | 100 to 1000 | O=C(CCS(=O)(=O)c1cccc2ncsc12)N1CCN(c2ccc(CO)cc2)CC1 [Example 138, 3-(1,3-benzothiazole-7-sulfonyl)-1-{4-[4-(hydroxymethyl)phenyl]piperazin-1-yl}propan-1-one] | > 10000 |  | 
1000 to 10000 | < 100 | O=C(CCS(=O)(=O)c1cccc2ncsc12)N1CC=C(c2ccc(C(F)(F)F)cn2)CC1 [Example 140, 3-(1,3-benzothiazole-7-sulfonyl)-1-[5-(trifluoromethyl)-1′,2′,3′,6′-tetrahydro-[2,4′-bipyridin]-1′-yl]propan-1-one] | 1000 to 10000 |  | 
> 10000 | < 100 | Cc1cc(C#N)ncc1N1CCN(C(=O)CCS(=O)(=O)c2cccc3nccn23)[C@@H](C)C1 [Example 144, 5-[(3S)-4-(3-{imidazo[1,2-a]pyridine-5-sulfonyl}propanoyl)-3-methylpiperazin-1-yl]-4-methylpyridine-2-carbonitrile] | > 10000 |  | 
100 to 1000 | < 100 | Cn1cnc2cccc(S(=O)(=O)CCC(=O)N3CCN(c4ccc(C(F)(F)F)cn4)CC3)c21 [Example 149, 3-[(1-methyl-1H-1,3-benzodiazol-7-yl)sulfonyl]-1-{4-[5-(trifluoromethyl)pyridin-2-yl]piperazin-1-yl}propan-1-one] | 1000 to 10000 |  | 
